The numbers were not newly measured in US12296348B2, “Electrostatic precipitator” (TECHNISCHE UNIVERSITÄT DORTMUND, priority 2019, dated 2025), which cites them from elsewhere.

For this series the following is noted: solubility limited in terms of its bioavailability.

For the compound `COc1ccc2cc([C@H](C)C(=O)O)ccc2c1` [unprocessed naproxen, naproxen], the BCS classification entry is “Class II”.
